Like-named read-outs stand apart in the source and are kept apart here.
Key:
Adenosine A2a receptor = target: T1, Adenosine A2a receptor (Homo sapiens, UniProt P29274); test: Adenosine receptor TR-FRET binding assay, A2a; details: displacement of 100 nM CA200645, CHO cell membranes
T1 construct: expressed in transfected cells; host or cells: CHO cell membranes
In short: (§1)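 Competition TR-FRET binding in CHO cell membranes expressing terbium-labelled human receptors, displacing fluorescent XAC (CA200645; 30 nM for A2b, 100 nM for A1, A2a, A3); 2 h at room temperature with saponin buffer, 1% DMSO. 665/620 nm ratio; non-specific with 10 μM XAC; Ki by Cheng–Prusoff from IC50.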

Adenosine A2b receptor = target: T2, Adenosine A2b receptor (Homo sapiens, UniProt P29275); test: Adenosine receptor TR-FRET binding assay, A2b; details: Table 9, further testing; displacement of 30 nM CA200645, CHO cell membranes
T2 construct: expressed in transfected cells; host or cells: CHO cell membranes
T2 sequence (P29275 1-332): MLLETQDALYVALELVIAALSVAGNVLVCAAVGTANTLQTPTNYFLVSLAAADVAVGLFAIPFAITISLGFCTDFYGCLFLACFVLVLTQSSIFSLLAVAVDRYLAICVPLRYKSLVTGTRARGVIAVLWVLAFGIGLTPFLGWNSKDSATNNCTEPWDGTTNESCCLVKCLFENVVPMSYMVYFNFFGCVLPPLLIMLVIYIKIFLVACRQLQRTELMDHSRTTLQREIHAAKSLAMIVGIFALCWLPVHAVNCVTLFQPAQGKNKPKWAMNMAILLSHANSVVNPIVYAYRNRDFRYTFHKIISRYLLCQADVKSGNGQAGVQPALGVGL
In short: as §1

Adenosine A1 receptor = target: T3, Adenosine A1 receptor (Homo sapiens, UniProt P30542); test: Adenosine receptor TR-FRET binding assay, A1; details: Table 9, further testing; displacement of 100 nM CA200645, CHO cell membranes
T3 construct: expressed in transfected cells; host or cells: CHO cell membranes
T3 sequence (P30542 1-326): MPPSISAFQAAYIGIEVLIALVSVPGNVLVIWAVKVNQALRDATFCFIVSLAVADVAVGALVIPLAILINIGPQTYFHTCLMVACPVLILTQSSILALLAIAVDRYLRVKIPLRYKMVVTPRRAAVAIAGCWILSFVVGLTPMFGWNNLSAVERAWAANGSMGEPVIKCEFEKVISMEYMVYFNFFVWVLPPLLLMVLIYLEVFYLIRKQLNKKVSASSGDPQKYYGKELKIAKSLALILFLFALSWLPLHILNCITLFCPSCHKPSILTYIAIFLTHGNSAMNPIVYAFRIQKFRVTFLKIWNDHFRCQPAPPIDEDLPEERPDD
In short: as §1

Adenosine A3 receptor = target: T4, Adenosine A3 receptor (Homo sapiens, UniProt P0DMS8); test: Adenosine receptor TR-FRET binding assay, A3; details: Table 9, further testing; displacement of 100 nM CA200645, CHO cell membranes; read-out: A3 Ki
T4 construct: expressed in transfected cells; host or cells: CHO cell membranes
T4 sequence (P0DMS8 1-318): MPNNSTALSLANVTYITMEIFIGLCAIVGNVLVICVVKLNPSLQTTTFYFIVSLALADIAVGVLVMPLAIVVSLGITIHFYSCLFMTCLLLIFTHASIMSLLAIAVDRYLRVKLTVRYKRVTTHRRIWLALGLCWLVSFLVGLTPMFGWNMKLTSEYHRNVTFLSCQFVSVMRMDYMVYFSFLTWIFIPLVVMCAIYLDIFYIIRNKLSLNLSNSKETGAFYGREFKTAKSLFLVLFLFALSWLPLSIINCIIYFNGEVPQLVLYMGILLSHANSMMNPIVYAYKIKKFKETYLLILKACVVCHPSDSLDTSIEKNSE
In short: as §1

Human PBMCs = test: CD3/CD28 stimulated IL-2 release NECA reversal assay; type: cell-based
Procedure: Blood is drawn from healthy volunteers using sodium citrate as the anticoagulant (0.3% final concentration). […] 50 μl diluted compound mix is added to the cells, to obtain final concentrations of 1 ug/ml CD28 antibody, 1 uM NECA and 0.003-10 μM adenosine receptor antagonist. Assay plates are incubated for 24 hours at 37° C. in a humidified incubator.

Human Whole Blood = test: LPS stimulated TNF-alpha release NECA reversal assay; type: cell-based; details: 5 hours
Procedure: Blood is drawn from healthy volunteers using sodium citrate (0.3% final concentration) or heparin (19.5 U/ml) as the anticoagulant. A 15 minute incubation may be given with adenosine deaminase (2 u/ml) prior to plating the blood into assay plates, as indicated. 20 μl diluted compound mix containing LPS, NECA and adenosine receptor antagonist diluted in RPMI medium is added to U-bottom cell culture plates. 180 μl anticoagulated blood is added. Assay plates are incubated for 5 hours at 37° C. in a humidified incubator. Plasma obtained by centrifugation at 2000 rpm/10 mins is tested for TNF alpha levels using the human TNF alpha Tissue Culture Kit (Meso Scale Discovery). For bar charts, data is expressed as raw counts from a Mesoscale Sector Imager 6000.

[1] = test system: CD8+T Cells in Human Whole Blood; test: Measurement of pCREB in CD8+ T cells; type: cell-based; details: T-cell, 1 h; heparinised human whole blood, rolipram, 3 μM NECA, 60 min, FACS
Procedure: Heparinised human whole blood was pre-incubated at 37° C. with serial dilutions of A2a antagonists for 20 min. and the phosphodiesterase inhibitor rolipram to amplify the pCREB response. The adenosine receptor agonist NECA is then added at a final concentration of 3 μM and following a 60 min incubation the blood is fixed and red blood cells lysed. White blood cells are isolated, permeabilized and stained with directly conjugated fluorescent antibodies to phospho-CREB (Alexa Fluor 488) and CD8 (Alexa Fluor 647) and the level of phospho-CREB in CD8+ T cells is measured by FACS using a BD Accuri C6 Flow Cytometer.

cancer = details: monotherapy and in combination with atezolizumab, preliminary data, cited from earlier work
[2] = Homo sapiens, PBMC, read-out: IL-2 release NECA reversal IC50 (nM), 1 uM NECA, 24 hours

T1 sequence (P29274 whole entry): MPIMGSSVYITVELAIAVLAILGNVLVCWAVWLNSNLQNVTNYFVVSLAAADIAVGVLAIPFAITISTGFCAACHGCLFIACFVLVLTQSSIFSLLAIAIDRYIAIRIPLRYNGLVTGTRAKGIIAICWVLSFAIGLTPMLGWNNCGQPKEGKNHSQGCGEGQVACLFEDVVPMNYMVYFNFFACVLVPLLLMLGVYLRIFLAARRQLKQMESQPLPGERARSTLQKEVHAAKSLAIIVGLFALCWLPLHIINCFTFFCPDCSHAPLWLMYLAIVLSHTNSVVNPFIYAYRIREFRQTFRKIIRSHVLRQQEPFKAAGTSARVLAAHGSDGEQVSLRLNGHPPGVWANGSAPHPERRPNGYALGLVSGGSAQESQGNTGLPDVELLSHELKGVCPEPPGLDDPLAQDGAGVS

Row | Ki (Adenosine A2a receptor; Table 9, further testing) | Ki (Adenosine A2b receptor) | Ki (Adenosine A1 receptor) | Ki (Adenosine A3 receptor) | IC50 (Human Whole Blood) | IC50 [1] | Ki (Adenosine A2a receptor; Table 8, Cheng and Prusoff) | SMILES | IC50 (Human PBMCs; [2]) | CD8+T infiltration into tumour tissue (cancer; early indications) | tumour size (cancer; early indications) | tolerability (cancer) | IC50 (Human PBMCs; read-out: IL-2 release NECA reversal IC50, 1 uM NECA, 24 hours)
1 | 0.11 nM | 80 nM | 1.7 nM | 11 nM | 221 nM | 42 nM | – | Cc1cccnc1CNC(=O)c1c(N)nc(-c2ccco2)nc1OC[C@H](C)O [Example 20.11, 4-Amino-2-(2-furyl)-6-[(2S)-2-hydroxypropoxy]-N-[(3-methyl-2-pyridyl)methyl]pyrimidine-5-carboxamide] | 9 nM | – | – | – | –
2 | 0.078 nM | 5.4 nM | 18 nM | 194 nM | 476 nM | 17 nM | – | COc1nc(-c2ccco2)nc(N)c1C(=O)NCc1c(Cl)cccc1Cl [Example 18.3, 4-Amino-N-[(2,6-dichlorophenyl)methyl]-2-(2-furyl)-6-methoxy-pyrimidine-5-carboxamide] | 5 nM | – | – | – | –
3 | 27 nM | 1560 nM | 17 nM | 1030 nM | – | – | 27 nM | Cc1cccnc1CNC(=O)c1cnc(-c2cccc(C#N)c2)nc1N [Example 12, 4-Amino-2-(3-cyanophenyl)-N-[(3-methyl-2-pyridyl)methyl]pyrimidine-5-carboxamide] | 1200 nM | – | – | – | –
4 | 0.79 nM | 95 nM | 318 nM | 50 nM | – | – | 0.9 nM | Cc1cccnc1CNC(=O)c1nnc(-c2ccco2)nc1N [Example 2, 5-Amino-3-(2-furyl)-N-[(3-methyl-2-pyridyl)methyl]-1,2,4-triazine-6-carboxamide] | 408 nM | – | – | – | –
5 | 27 nM | 1750 nM | 143 nM | 230 nM | – | – | 27 nM | COc1ccccc1CNC(=O)c1cnc(-c2cccc(F)c2)nc1N [Example 10.8, 4-Amino-2-(3-fluorophenyl)-N-[(2-methoxyphenyl)methyl]pyrimidine-5-carboxamide] | 2000 nM | – | – | – | –
6 | 3.3 nM | 215 nM | 1760 nM | 1940 nM | – | – | 3.8 nM | Nc1nc(-c2ccco2)ncc1C(=O)NCc1ccccc1F [Example 5.18, 4-Amino-N-[(2-fluorophenyl)methyl]-2-(2-furyl)pyrimidine-5-carboxamide] | 230 nM | – | – | – | –
7 | 34 nM | 1280 nM | 90 nM | 2510 nM | – | – | 34 nM | CC(C)n1ncnc1CNC(=O)c1cnc(-c2cccc(F)c2)nc1N [Example 10.15, 4-Amino-2-(3-fluorophenyl)-N-[(2-isopropyl-1,2,4-triazol-3-yl)methyl]pyrimidine-5-carboxamide] | 1290 nM | – | – | – | –
8 | 0.099 nM | 611 nM | 9 nM | 14 nM | – | – | – | Cc1cccnc1CNC(=O)c1c(N)nc(-c2ccco2)nc1OC[C@@H](C)O [Example 20.13, 4-Amino-2-(2-furyl)-6-[(2R)-2-hydroxypropoxy]-N-[(3-methyl-2-pyridyl)methyl]pyrimidine-5-carboxamide] | 19 nM | – | – | – | –
9 | 12 nM | 383 nM | 42 nM | 13 nM | – | – | 11 nM | Cc1cccnc1CNC(=O)c1nnc(-c2cccc(F)c2)nc1N [Example 7, 5-Amino-3-(3-fluorophenyl)-N-[(3-methyl-2-pyridyl)methyl]-1,2,4-triazine-6-carboxamide] | 830 nM | – | – | – | –
10 | – | – | – | – | – | – | – | Cc1ccc(-c2nc(N)nc3c2nnn3Cc2cccc(CO[C@H]3CCOC3)n2)o1 [CPI-444] | – | enhancing CD8^+T infiltration into tumour tissue | reducing tumour size | well tolerated | –
11 | 1.8 nM | 1220 nM | 4.9 nM | 11 nM | – | – | – | Cc1cccnc1CNC(=O)c1c(N)nc(-c2ccco2)nc1OCC(C)(C)C [Example 20.10, 4-Amino-6-(2,2-dimethylpropoxy)-2-(2-furyl)-N-[(3-methyl-2-pyridyl)methyl]pyrimidine-5-carboxamide] | 62 nM | – | – | – | –
12 | 3.3 nM | 440 nM | 1720 nM | 908 nM | 2290 nM | 1210 nM | 1.7 nM | Cc1cccnc1CNC(=O)c1cnc(-c2ccco2)nc1N [Example 3, 4-Amino-2-(2-furyl)-N-[(3-methyl-2-pyridyl)methyl]pyrimidine-5-carboxamide] | – | – | – | – | 77 nM
13 | 42 nM | 1140 nM | 159 nM | 609 nM | – | – | 42 nM | CCn1ccnc1CNC(=O)c1cnc(-c2cccc(F)c2)nc1N [Example 10.14, 4-Amino-N-[(1-ethylimidazol-2-yl)methyl]-2-(3-fluorophenyl)pyrimidine-5-carboxamide] | 1240 nM | – | – | – | –
14 | 1.3 nM | 77 nM | 260 nM | 62 nM | – | 106 nM | – | Cc1cccnc1CNC(=O)c1c(N)nc(-c2ncco2)nc1OCCF [Example 25, 4-Amino-6-(2-fluoroethoxy)-N-[(3-methyl-2-pyridyl)methyl]-2-oxazol-2-yl-pyrimidine-5-carboxamide] | 11 nM | – | – | – | –
15 | 0.64 nM | 231 nM | 202 nM | 201 nM | – | – | 1.1 nM | COc1nc(-c2ccco2)nc(N)c1C(=O)NCc1ncccc1C [Example 18, 4-Amino-2-(2-furyl)-6-methoxy-N-[(3-methyl-2-pyridyl)methyl]pyrimidine-5-carboxamide] | 37 nM | – | – | – | –
